From patent publication US8557960B2, “Peptide for augmenting and expression of BDNF and pharmaceutical composition for prevention and treatment of neurodegenerative diseases including Alzheimer's disease or Parkinson's disease, comprising the same” (Sungkyunkwan University, priority 2009, dated 2013)

System: BDNF
Assay: Assay for BDNF expression in dopamine-reactive human cell line SH-SY5Y (Western blotting)
Assay type: cell-based
Conditions: SH-SY5Y cells, 12 hrs treatment, FIG. 2
Method: SH-SY5Y cells were seeded at a density of 2×10^5 cells/well into 6-well plates (NUNC) and incubated at 34° C. for 12 hrs in a 5% CO2 incubator and then for an additional 12 hrs in the presence of one of NP 2 to 9 at a concentration of 1 pM, 10 pM, 100 pM, 1 nM, 10 nM, 100 nM, or 1 μM. The cells in each well were washed twice with 1 mL of 1×PBS […], treated with 10 μL of protease inhibitor (Amersham) per 1 mL of RIPA, and collected into 1.5 mL tubes using a cell lifter (Corning). After centrifugation at 4° C. and 9000 rpm for 5 min (MiCRO 17 TR, Hnil Science Industrial Co., Ltd.) to pelletize cell membranes, the supernatants containing proteins were transferred into new 1.5 mL tubes and quantitatively measured for protein level using a Bradford assay.
20 μL of each sample was loaded onto 15% acrylamide gel, prepared using a 1.5 mm Western blotting gel caster (Bio-Rad), and run for 2.5 hrs in the presence of an electric field of 100 V using an electrophoresis power supply (EPS 601, Amersham). The proteins run on the gel were transferred onto a PVDF membrane (Polyvinylidene Difluoride, Millipore) at 400 mA for 2.5 hrs in a transfer tank (Mighty small transphor, Amersham) using an electrophoresis power supply (EPS301, GE healthcare). The PVDF membrane was blocked for 1 hr with 7% skim milk (Difco™ Skim milk, BD) and incubated overnight with a mouse anti-human BDNF monoclonal antibody at a dilution ratio of 1:500. Thereafter, the membrane was washed for 2 hrs 0.05% TBST (Tris-Buffered Saline Tween 20) (this buffer was replaced every hour) and incubated for 1 hr with goat anti-mouse IgG:HRP (IgG:Horseradish Peroxidase Conjugate, SC-2005, Santa Cruz Biotechnology) at a ratio of 1:500. After washing the membrane with 0.05% TBST for 2 hrs (the buffer was replaced every hour), proteins were detected using a chemiluminescent HRP substrate kit (Millipore), and the results are shown in FIG. 2.

Substance	BDNF expression (relative level of BDNF to β-actin vs control)
Met-Asp-Gly [NP-5]	even a very small amount of NP-5 and NP-6 could augment BDNF expression
Met-Thr-Gly [NP-6]	even a very small amount of NP-5 and NP-6 could augment BDNF expression
Val-Gly [NP-9]	used at the same or less than was the amount of the tripeptides so as to induce BDNF expression
